Measured values published in PubChem BioAssay AID1996.
≈ marks a conversion by molar mass, not a printed value.

Settings: buffer; pH 7.4; 200.0 µM

| SMILES | solubility kinetic [µg/mL] |
| --- | --- |
| CCCc1nc(NCCO)c(C#N)c2c1CCCC2 | > 38.9 |
| Nc1nc(NCC(=O)O)nc(NC2CCCCC2)c1[N+](=O)[O-] | > 46.5 |
| Cc1c(C(=O)C(=O)NCCCn2ccnc2)c2ccccc2n1C | > 48.7 |
| CC1CCCN(Cc2nc(Cc3ccccc3Cl)no2)C1 (stereo not given) | 27 (≈ 88.3 µM) |
| O=C(Nc1ccccc1C(=O)NCCc1ccccc1)c1cnccn1 | 3.2 (≈ 9.24 µM) |
| O=C(O)CCCC(=O)Nc1ccccc1Oc1ccccc1 | > 44.9 |
| CCN(CC)C(=O)c1cc(-c2ccc3c(c2)OCO3)on1 | 20.8 (≈ 72.1 µM) |
| CC(C)CN(C(=O)CSc1nc(N)cc(N)n1)C1CCS(=O)(=O)C1 (stereo not given) | > 56 |
| O=C1COc2ccc(S(=O)(=O)NCc3ccccc3)cc2N1 | 11.6 (≈ 36.4 µM) |
| Cc1ccc(SCC(=O)NCc2ccccc2)cc1 | > 40.7 |
| Cc1cc(C)c2ccc(/C=N/O)nc2c1O | 2.8 (≈ 12.9 µM) |
| Nc1ccc(-c2cn3cccnc3n2)cc1 | > 31.5 |
| COc1ccc(OC)c(NC(=O)CCN2CCN(C)CC2)c1.Cl | 44.2 |
| N#Cc1c(NC(=O)CCC(=O)O)sc2c1CCCCC2 | > 43.9 |
| CN(C)c1ccc(C=NCC2COc3ccccc3O2)cc1 (stereo not given) | > 44.5 |
| COc1ccc(OC)c(NC(=O)COC(=O)CCc2ccc(S(=O)(=O)N3CCOCC3)cc2)c1 | 29 (≈ 58.9 µM) |
| Cc1ccc(C(=O)COC(=O)CN2C(=O)C3C4CCC(C4)C3C2=O)cc1C (stereo not given) | 46.2 (≈ 125 µM) |
| O=C(NCC(=O)N1CCOCC1)c1ccc(Cl)c(Cl)c1 | > 47.6 |
| Cc1nc2ccccc2n1CCc1ccccc1 | 30.1 (≈ 127 µM) |
| Cc1cn(CCOc2ccc(Cl)cc2)c(=O)[nH]c1=O | 36.8 (≈ 131 µM) |
| O=C(CSc1ccc([N+](=O)[O-])cc1)OCC(=O)N1CCCC1=O | 50.3 (≈ 149 µM) |
| CC(C)C(OC(=O)c1ccc(Cl)nc1)C(=O)NC1CCCCC1 (stereo not given) | 29.7 (≈ 87.7 µM) |
| O=C1NC(=Nc2cccc(O)c2)S/C1=C\c1cccnc1 | 1.2 (≈ 4.04 µM) |
| CC(C)c1cc(NCc2ccccn2)n2c(nc3ccccc32)c1C#N | < 0.1 |

| SMILES | solubility kinetic [µg/mL] |
| --- | --- |
| Cc1ccc(N2C(=O)C3C4C=CC(CC4)C3C2=O)cc1[N+](=O)[O-] (stereo not given) | 23.4 (≈ 74.9 µM) |
| O=C1N/C(=N\c2ccccn2)SC1Cc1ccccc1Cl (stereo not given) | < 0.2 |
| CC(C)Cc1ccc(/C=C/C(=O)N2CCOCC2)cc1 | > 41 |
| COc1ccc(NC(=O)CSc2ccc(NC(C)=O)cc2)cc1S(=O)(=O)N1CCOCC1 | > 71.9 |
| O=C(OCc1cccc(F)c1)c1ccc2c(=O)n3c(nc2c1)CCC3 | 18.5 (≈ 54.7 µM) |
| Cc1sc2nc[nH]c(=O)c2c1-c1ccc(Cl)cc1 | 1.8 (≈ 6.5 µM) |
| O=C(NC(=S)NCc1ccc(Cl)cc1Cl)c1ccco1 | 1.4 (≈ 4.25 µM) |
| CC(C)(C)C(=O)Cn1c(NCCCl)nc2ccccc21.Cl | > 49.5 |
| NS(=O)(=O)c1ccc(S(=O)(=O)N2CCN(C3CCCC3)CC2)cc1 | 47.8 (≈ 128 µM) |
| C=CCOc1ccccc1CN1CCCCCC1 | 28.7 (≈ 117 µM) |
| Cc1ccc(S(=O)(=O)NC(=O)c2cccc(N(C)C)c2)cc1 | > 47.8 |
| CC(=O)c1ccc[n+](CC(=O)NC(C)c2ccccc2)c1.[Cl-] (stereo not given) | > 47.8 |
| Cc1ccc(O)c(NC(=O)c2cc(-c3ccccc3Cl)on2)c1 | 0.4 (≈ 1.22 µM) |
| O=C(CC(c1ccccc1)c1ccccc1O)N1CCCCC1 (stereo not given) | > 46.4 |
| COc1ccc2c(c1)c(C(=O)O)c(C)n2-c1ccccc1 | 38.4 (≈ 137 µM) |
| CCOc1ccc(/C=C/c2nc(C#N)c(NCCCN(C)C)o2)cc1 | > 51.1 |
| CSc1ccc(S(=O)(=O)NC2CC3CCC2C3)cc1 (stereo not given) | 29.7 (≈ 99.9 µM) |
| CCOC(=O)c1c(C)[nH]c(C(=O)NCC(c2ccco2)N2CCCCC2)c1C (stereo not given) | 2 (≈ 5.16 µM) |
| CCCCN(CCCC)c1nc(-c2ccncc2)nc2ccccc12 | < 0.2 |
| COc1ccc(CC(=O)Nc2c(C(N)=O)oc3ccccc23)cc1 | 1.6 (≈ 4.93 µM) |
| O=C1C(Cc2ccccc2O)NC(=S)N1c1ccccc1 (stereo not given) | 44.6 (≈ 149 µM) |
| NC(=O)c1cn(C2CCCCC2)c2ccccc2c1=O | > 40.5 |
| CCc1nc2sc3c(=O)[nH]cnc3c2c2c1CSC(C)(C)C2 | 16.7 (≈ 50.4 µM) |
| N#Cc1cccc(C(=O)N(CCc2ccccc2)Cc2cccs2)c1 | 12.9 (≈ 37.2 µM) |

| SMILES | solubility kinetic [µg/mL] |
| --- | --- |
| CC(=O)Nc1ccc(-n2c(C)ccc2-c2ccccc2)cc1 | 4.4 (≈ 15.2 µM) |
| O=C(Nc1ccc(Oc2ccsc2C(=O)O)cc1)c1ccccc1 | > 50.9 |
| COc1ccc(CCC(=O)Nc2ncc(C)s2)cc1OC | 1.8 (≈ 5.87 µM) |
| COc1ccc(C(=O)NC(=S)N2CCN(c3ccccc3O)CC2)cc1 | 6.1 (≈ 16.4 µM) |
| CC(=O)c1c(C)[nH]c(C(=O)Nc2cc(F)ccc2C)c1C | 4.5 (≈ 15.6 µM) |
| N#C/C(=C\c1c[nH]c2ccccc12)C(=O)NC1CCCC1 | 1.8 (≈ 6.44 µM) |
| O=[N+]([O-])c1ccc(-c2cnc[nH]2)cc1 | > 28.4 |
| CCOc1ccc(Cc2noc3c2C(=O)CC(C)(C)C3)cc1OCC | 46.4 (≈ 135 µM) |
| O=S(=O)(Nc1ccc2c(c1)OCCO2)c1c(F)cccc1F | 47.8 (≈ 146 µM) |
| CNC(=S)NNC(=O)c1cccc(N(C)C)c1 | > 37.9 |
| O=C(NCc1ccccc1F)Nc1ccc([N+](=O)[O-])cc1 | 1.3 (≈ 4.49 µM) |
| O=[N+]([O-])c1cncc([N+](=O)[O-])c1Nc1cccc(O)c1 | > 41.4 |
| Cc1nn(C)cc1S(=O)(=O)Nc1ccc(F)c(F)c1 | > 43.1 |
| CNC(=S)SCCOc1ccccc1 | 17.5 (≈ 77 µM) |
| CCc1ccccc1N1C(=O)CC(Sc2nccc(C)n2)C1=O (stereo not given) | 47.3 (≈ 144 µM) |
| CCCNc1nc2c(c(=O)[nH]c(=O)n2C)n1CCOc1ccccc1 | 4 (≈ 11.6 µM) |
| O=C(NC(Cc1ccccc1)C(=O)O)NC12CC3CC(CC(C3)C1)C2 (stereo not given) | > 51.4 |
| O=C(NCCO)N1c2ccccc2Sc2ccccc21 | > 43 |
| Clc1nnc(Cl)c2c1ncn2Cc1ccccc1 | > 41.9 |
| CNC(=O)/C(=C\c1ccco1)NC(=O)c1ccco1 | > 39 |
| COc1ccc(S(=O)(=O)N2CCOCC2)cc1C(=O)N(C)Cc1ccco1 | > 59.2 |
| CCOC(=O)CSc1nc(C(C)(C)C)nc2ccccc12 | 0.7 (≈ 2.3 µM) |
| O=C(O)c1c2c(nc3ccc(Cl)cc13)CCC2 | 32.1 (≈ 130 µM) |
| O=C(O)c1ccc(NCc2cccnc2)c([N+](=O)[O-])c1 | > 41 |

| SMILES | solubility kinetic [µg/mL] |
| --- | --- |
| COc1ccc(Cl)cc1C(=O)NCCN1CCOCC1 | > 44.8 |
| Cc1nc(C(=O)NCC(=O)c2ccccc2)c(C(F)(F)F)o1 | > 46.8 |
| CN(C)Cc1ccc(CNC(=O)COc2ccc3ccccc3c2)cc1 | 44.7 (≈ 128 µM) |
| Br.CCn1c2c(c(=N)c3ccccc31)CCC2 | > 44 |
| Cc1cc(C)c(C)c(S(=O)(=O)Nc2cccnc2)c1C | 3.6 (≈ 12.4 µM) |
| COc1cc(S(=O)(=O)N(C)C2CCCCC2)c(C)cc1C | 1.5 (≈ 4.82 µM) |
| O=C(Nc1cc2c3c(c1)CC(=O)N3CCC2)c1c(F)cccc1F | 9.6 (≈ 29.2 µM) |
| O=C(OCCN1CCOCC1)c1ccc(O)cc1 | > 37.7 |
| CC1C(=O)Nc2ccccc2N1C(=O)c1ccc(Cl)c(Cl)c1 (stereo not given) | 36.2 (≈ 108 µM) |
| Cc1cccc(-c2noc(CN(C)C(=O)c3ccco3)n2)c1 | > 44.6 |
| COP(=O)(OC)C(Nc1ccc(Cl)cc1)c1ccccc1 (stereo not given) | > 48.9 |
| O=C(O)CCc1ccc(S(=O)(=O)Nc2ccccc2N2CCCCC2)cc1 | > 58.3 |
| CCOC(=O)C1CCN(c2ncnc3c2cnn3C)CC1 | > 43.4 |
| CC(C)n1c(SCC(=O)NC2CC2)nnc1-c1ccco1 | > 46 |
| N/C(=N\OC(=O)c1cccc(F)c1)c1ccccn1 | 37.4 (≈ 144 µM) |
| O=C(CN1CCN(Cc2ccccc2)CC1)N/N=C/c1cccnc1 | > 50.6 |
| CCOC(=O)C(Cc1ccccc1)C(=O)NCc1cccnc1 (stereo not given) | > 46.9 |
| CC1CCCCC1NC(=O)COC(=O)c1ccc2ccccc2n1 (stereo not given) | 7.1 (≈ 21.8 µM) |
| Cc1cc(Br)c2c(c1)C1(OCCO1)C(=O)N2 | > 42.6 |
| O=C(Nc1c(Cl)ccc2nsnc12)c1ccc([N+](=O)[O-])o1 | > 48.7 |
| Cc1cccc(-c2noc(CCCC(=O)NC3CCCCC3)n2)c1 | 4.5 (≈ 13.7 µM) |
| CCN(C(=O)c1ccc(Cl)c([N+](=O)[O-])c1)c1ccccc1 | 35.8 (≈ 117 µM) |
| Cc1ccc(CC(=O)NCCC(=O)O)cc1 | > 33.2 |
| COc1ccccc1NS(=O)(=O)c1cc(NC(=O)COc2ccccc2F)ccc1N1CCOCC1 | 2.4 (≈ 4.66 µM) |

| SMILES | solubility kinetic [µg/mL] |
| --- | --- |
| O=C(Nc1ccc(Cl)cc1Cl)c1ccc(Br)o1 | < 0.7 |
| COc1ccccc1CNC(=O)CC(C)c1ccccc1 (stereo not given) | 39.8 (≈ 140 µM) |
| COc1ccc(C(=O)CCC(=O)Nc2cccnc2)c(OC)c1 | > 47.2 |
| O=C(Nc1nc(-c2cccnc2)cs1)c1ccccc1F | < 0.2 |
| O=C(CSc1nnc(C2CC2)n1Cc1ccccc1)N1CCNC1=O | > 53.6 |
| CC1(C)CN=C(Nc2ccc(F)c(Cl)c2)S1 | 0.8 (≈ 3.09 µM) |
| Cc1c(C=O)c2ccccn2c1C(=O)c1ccc(F)cc1 | 6.5 (≈ 23.1 µM) |
| Cc1ccccc1NC(=O)NC1CCCc2ccccc21 (stereo not given) | 0.9 (≈ 3.21 µM) |
| O=C(CN1C(=O)C2C3CCC(C3)C2C1=O)OCC(=O)c1ccc(Br)cc1 (stereo not given) | > 63 |
| Cc1cccc(OCCSc2nc3ncnc(N)c3[nH]2)c1 | 1.5 (≈ 4.98 µM) |
| O=C1NCCN/C1=C\C(=O)c1cccc(Br)c1 | > 44.3 |
| Nc1ccccc1SCc1c(Cl)cccc1Cl | < 0.6 |
| COc1ccc(N2C(=O)CSC2c2ccc(F)cc2)cc1 (stereo not given) | > 45.5 |
| CCCNC(=S)N1CCC(C(=O)c2ccc3c(c2)OCCO3)CC1 | 41.3 (≈ 119 µM) |
| CN1CCN(c2nnc(-c3ccc(F)cc3)c3ccccc23)CC1 | > 48.4 |
| COC(=O)c1c(C(=O)OC)c(-c2ccc(F)cc2)n2c1CS(=O)C2 (stereo not given) | > 52.7 |
| O=C1NC(=O)C2(CCCCCCCCCCC2)N1 | 1.5 (≈ 5.94 µM) |
| CCNc1oc(/C=C/c2ccc(OCC)cc2)nc1C#N | 1.7 (≈ 6 µM) |
| O=C(CCS(=O)(=O)c1ccccc1)NC1CCCCC1 | > 44.3 |
| O=C(O)c1cc(Oc2ccc(C(F)(F)F)cc2Cl)ccc1[N+](=O)[O-] | > 54.2 |
| Cc1ccc(N(Cc2cc(=O)[nH]c3ccccc23)C(=O)CCl)c(C)c1 | 14.1 (≈ 39.7 µM) |
| CC1CCN(C(=O)c2ccccc2NC(=O)Cc2ccccc2)CC1 | > 50.5 |
| OC(CNCc1ccccc1Cl)C(F)(F)F (stereo not given) | 34.1 (≈ 134 µM) |
| O=S(=O)(Nc1cccc(CCc2ccccn2)c1)c1cc(Cl)ccc1Cl | 9.2 (≈ 22.6 µM) |
